From publication PMC12372228 (Journal of the American Chemical Society, 2025)

Legend:
[1] = test system: HCT-116 colon cancer cells; experiment: In vitro cytotoxicity, HCT-116 colon cancer cells; settings: Homo sapiens, HCT-116, 72 h
HT-29 colon cancer cells = experiment: In vitro cytotoxicity, HT-29 colon cancer cells; format: cell-based; settings: Homo sapiens, HT-29, 72 h
HCT-116 tumors = experiment: Antitumor efficacy in nude mice bearing HCT-116 tumors; format: in vivo; settings: 66.7 mg/kg i.v. on days 1, 5, 9; n = 5
HT-29 tumors = experiment: Antitumor efficacy in nude mice bearing HT-29 tumors; format: in vivo; settings: 66.7 mg/kg i.v. on days 1, 5, 9
healthy mice = settings: dose used is near the reported MTD; cited from earlier work

Row | SMILES | IC50 [1] [nM] | IC50 (HT-29 colon cancer cells) [nM] | median survival (HCT-116 tumors) [days] | median survival (HT-29 tumors; n = 5 (TT 1 study)) [days] | median survival (HT-29 tumors; n = 7 (TT 7E study)) [days] | reported maximum tolerated dose (MTD) (healthy mice) [mg/kg]
1 | CC[C@@]1(O)C(=O)OCc2c1cc1n(c2=O)Cc2cc3ccccc3nc2-1 [CPT, camptothecin] | 40 | 64 | – | – | – | –
2 | CCc1c2c(nc3ccc(OC(=O)N4CCC(N5CCCCC5)CC4)cc13)-c1cc3c(c(=O)n1C2)COC(=O)[C@]3(O)CC [irinotecan] | – | – | 23 | 33 | 41 | ~66.7
